In ChEMBL document CHEMBL1949653, “Novel heterocyclic DPP-4 inhibitors for the treatment of type 2 diabetes” (Bioorg Med Chem Lett, 2012):

Tests used:
[1] = target: T1, Muscarinic acetylcholine receptor M1 (Homo sapiens, UniProt P11229); test: Inhibition of M1 receptor
T1 sequence (P11229 whole entry): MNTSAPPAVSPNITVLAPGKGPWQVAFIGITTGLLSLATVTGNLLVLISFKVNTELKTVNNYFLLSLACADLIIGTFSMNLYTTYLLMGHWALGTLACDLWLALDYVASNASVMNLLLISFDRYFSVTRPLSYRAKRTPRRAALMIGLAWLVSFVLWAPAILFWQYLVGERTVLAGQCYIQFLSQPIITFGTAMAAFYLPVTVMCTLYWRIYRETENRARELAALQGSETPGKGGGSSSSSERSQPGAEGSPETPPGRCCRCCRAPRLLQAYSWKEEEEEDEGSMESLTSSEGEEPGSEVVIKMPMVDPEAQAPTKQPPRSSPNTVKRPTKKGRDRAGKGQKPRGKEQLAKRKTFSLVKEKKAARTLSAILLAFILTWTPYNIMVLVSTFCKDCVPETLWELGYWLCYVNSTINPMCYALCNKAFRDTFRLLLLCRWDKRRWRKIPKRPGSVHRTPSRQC

[2] = target: Cytochrome P450 3A4 (Homo sapiens, UniProt P08684); test: Inhibition of CYP3A4; assay type: ADME
[3] = target: Voltage-gated inwardly rectifying potassium channel KCNH2 (Homo sapiens, UniProt Q12809); test: Inhibition of human ERG by dofetilide binding assay
[4] = Permeability from apical side to basal side of human Caco2 cells; conditions: Caco-2
[5] = Cmax in rat; assay type: ADME, organism-based; conditions: in vivo
[6] = AUC in rat; assay type: ADME, organism-based; conditions: plasma
[7] = Clearance in rat at 1 mg/kg, iv; assay type: ADME, organism-based; design: dose 1 mg/kg, route intravenous; conditions: in vivo
[8] = Oral bioavailability in rat; assay type: ADME, organism-based; conditions: in vivo
[9] = Intrinsic clearance in rat liver microsome; assay type: ADME; conditions: liver microsomes, read-out: CLH
[10] = tested on: Rattus norvegicus; test: Ex-vivo inhibition of DPP4 in Wistar rat at 3 mg/kg, po up to 8 hrs post-administration; assay type: functional
[11] = Inhibition of Cytochrome P450; assay type: ADME
[12] = species on record: Rattus norvegicus; test: animal or person; conditions: po, 5 h, read-out: INH

Voltage-gated inwardly rectifying potassium channel KCNH2, sequence (Q12809 whole entry): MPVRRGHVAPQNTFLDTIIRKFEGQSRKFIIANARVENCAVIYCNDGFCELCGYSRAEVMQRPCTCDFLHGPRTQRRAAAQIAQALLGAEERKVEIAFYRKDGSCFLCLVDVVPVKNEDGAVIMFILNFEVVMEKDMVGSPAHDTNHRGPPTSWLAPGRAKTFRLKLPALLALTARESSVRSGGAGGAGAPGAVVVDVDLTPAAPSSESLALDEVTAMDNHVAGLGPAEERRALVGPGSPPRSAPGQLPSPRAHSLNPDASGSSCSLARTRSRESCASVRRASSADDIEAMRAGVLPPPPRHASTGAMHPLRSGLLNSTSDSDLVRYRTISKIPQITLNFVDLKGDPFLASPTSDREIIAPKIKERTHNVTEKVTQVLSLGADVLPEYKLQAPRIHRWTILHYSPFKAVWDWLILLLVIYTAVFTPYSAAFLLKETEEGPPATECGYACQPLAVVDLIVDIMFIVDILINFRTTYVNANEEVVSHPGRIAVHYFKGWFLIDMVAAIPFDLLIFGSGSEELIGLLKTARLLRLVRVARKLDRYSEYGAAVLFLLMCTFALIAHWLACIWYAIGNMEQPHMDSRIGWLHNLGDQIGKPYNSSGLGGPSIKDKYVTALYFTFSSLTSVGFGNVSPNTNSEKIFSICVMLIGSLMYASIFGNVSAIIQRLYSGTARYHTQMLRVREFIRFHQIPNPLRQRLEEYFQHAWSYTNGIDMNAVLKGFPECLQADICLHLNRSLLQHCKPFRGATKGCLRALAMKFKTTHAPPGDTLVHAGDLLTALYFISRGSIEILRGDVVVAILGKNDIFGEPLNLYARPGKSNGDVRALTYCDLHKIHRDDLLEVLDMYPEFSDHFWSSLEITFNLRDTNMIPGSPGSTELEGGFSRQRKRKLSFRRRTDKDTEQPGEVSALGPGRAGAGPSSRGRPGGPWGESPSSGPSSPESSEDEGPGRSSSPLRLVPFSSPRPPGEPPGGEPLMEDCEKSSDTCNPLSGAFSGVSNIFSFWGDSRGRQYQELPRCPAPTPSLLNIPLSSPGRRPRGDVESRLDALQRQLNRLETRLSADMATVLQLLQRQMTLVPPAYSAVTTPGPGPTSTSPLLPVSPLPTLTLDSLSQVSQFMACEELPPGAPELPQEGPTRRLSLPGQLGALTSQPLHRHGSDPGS
Cytochrome P450 3A4, sequence (P08684 whole entry): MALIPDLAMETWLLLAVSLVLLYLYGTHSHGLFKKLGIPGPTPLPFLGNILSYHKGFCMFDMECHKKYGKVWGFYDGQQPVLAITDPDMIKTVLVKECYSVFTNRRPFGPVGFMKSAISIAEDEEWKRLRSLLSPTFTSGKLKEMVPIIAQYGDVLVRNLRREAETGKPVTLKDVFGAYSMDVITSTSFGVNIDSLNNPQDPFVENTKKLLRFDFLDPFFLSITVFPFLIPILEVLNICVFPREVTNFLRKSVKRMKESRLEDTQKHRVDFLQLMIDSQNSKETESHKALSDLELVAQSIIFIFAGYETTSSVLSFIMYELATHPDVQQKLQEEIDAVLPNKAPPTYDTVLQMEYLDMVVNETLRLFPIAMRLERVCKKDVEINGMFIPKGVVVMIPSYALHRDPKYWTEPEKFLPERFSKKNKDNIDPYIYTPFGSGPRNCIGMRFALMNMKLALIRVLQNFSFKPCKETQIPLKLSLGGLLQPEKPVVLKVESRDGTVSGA

| Compound | IC50 [1] [µM] | other results |
| --- | --- | --- |
| CC#CCn1c(N2CCC[C@@H](N)C2)nc2c1c(=O)n(Cc1nc(C)c3ccccc3n1)c(=O)n2C [LINAGLIPTIN] | – | Papp A→B [4]: 0.8 ×10⁻⁶ cm/s; Cmax [5]: 21 nM; AUC [6]: 0.185 µM·h; clearance [7]: 34 mL/min/kg; bioavailability [8]: 9% |
| CC(C)=CCn1c(N2CCC[C@H](N)C2)c(C#N)c2ncn(Cc3nc(C)c4ccccc4n3)c(=O)c21 | > 10 | – |
| CC#CCn1c(N2CCC[C@H](N)C2)c(C#N)c2c1c(=O)n(CC(=O)c1cccc(OC)c1)c(=O)n2C | > 10 | – |
| CC#CCn1c(N2CCC[C@H](N)C2)c(C#N)c2ncn(CC(=O)c3cccc(OC)c3)c(=O)c21 | > 10 | – |
| CC(C)=CCn1c(N2CCCNCC2)c(C#N)c2ncn(Cc3nccc4ccccc34)c(=O)c21 | > 10 | – |
| CC(C)=CCn1c(N2CCC[C@H](N)C2)c(C#N)c2c1c(=O)n(Cc1cnc3ccccc3n1)c(=O)n2C | > 10 | IC50 [2]: ≤ 3 µM |
| CC(C)=CCn1c(N2CCC[C@H](N)C2)c(C#N)c2c1c(=O)n(Cc1nc(C)c3ccccc3n1)c(=O)n2C | > 10 | IC50 [2]: ≤ 3 µM; IC50 [3]: 6.7 µM |
| Cn1c(=O)n(Cc2nccc3ccccc23)c(=O)c2c1c(C#N)c(N1CCC[C@H](N)C1)n2Cc1ccccc1 | > 10 | IC50 [2]: ≤ 3 µM; IC50 [3]: 2.8 µM |
| CC(C)=CCn1c(N2CCC[C@H](N)C2)c(C#N)c2ncn(Cc3ncc4ccccc4n3)c(=O)c21 | > 10 | CLint scaled [9]: 67 mL/min/kg |
| COc1cccc(C(=O)Cn2cnc3c(C#N)c(N4CCC[C@@H](N)C4)n(Cc4ccccc4)c3c2=O)c1 | > 10 | – |
| CC#CCn1c(N2CCCNCC2)c(C#N)c2ncn(Cc3ncc4ccccc4n3)c(=O)c21 | > 10 | Papp A→B [4]: 0.6 ×10⁻⁶ cm/s |
| CC(C)=CCn1c(N2CCCNCC2)c(C#N)c2c1c(=O)n(Cc1c(C#N)cnc3ccccc13)c(=O)n2C | > 10 | IC50 [2]: ≤ 3 µM; IC50 [3]: 0.9 µM |
| CC#CCn1c(N2CCCNCC2)c(C#N)c2ncn(Cc3nccc4ccccc34)c(=O)c21 | > 10 | – |
| CC#CCn1c(N2CCCNCC2)c(C#N)c2c1c(=O)n(Cc1ncc3ccccc3c1C#N)c(=O)n2C | > 10 | IC50 [3]: 12 µM |
| CC#CCn1c(N2CCNCC2)c(C#N)c2ncn(CC(=O)c3cccc(OC)c3)c(=O)c21 | > 10 | – |
| CC#CCn1c(N2CCC[C@H](N)C2)c(C#N)c2ncn(Cc3nccc4ccccc34)c(=O)c21 | > 10 | – |
| CC#CCn1c(N2CCCNCC2)c(C#N)c2ncn(Cc3nc(C)c4ccccc4n3)c(=O)c21 | > 10 | Papp A→B [4]: 1.7 ×10⁻⁶ cm/s |
| CC#CCn1c(N2CCCNCC2)c(C#N)c2c1c(=O)n(Cc1nccc3ccccc13)c(=O)n2C | > 10 | inhibition in vivo at 3 mg/kg [10]: ≥ 70% |
| CC#CCn1c(N2CCCNCC2)c(C#N)c2c1c(=O)n(Cc1c(C#N)cnc3ccccc13)c(=O)n2C | > 10 | IC50 [2]: ≥ 10 µM; IC50 [11]: > 10 µM |
| CC(C)=CCn1c(N2CCC[C@H](N)C2)c(C#N)c2ncn(Cc3nccc4ccccc34)c(=O)c21 | > 10 | inhibition in vivo at 3 mg/kg [12]: 60% |
| CC#CCn1c(N2CCC[C@H](N)C2)c(C#N)c2c1c(=O)n(Cc1nccc3ccccc13)c(=O)n2C | > 10 | IC50 [3]: 28.2 µM |
| CC#CCn1c(N2CCC[C@H](N)C2)c(C#N)c2ncn(Cc3ccnc4ccccc34)c(=O)c21 | > 10 | – |
| CC#CCn1c(N2CCCNCC2)c(C#N)c2c1c(=O)n(Cc1nc(C)c3ccccc3n1)c(=O)n2C | > 10 | – |

Now from value to compound, other results behind:

| IC50 [1] [µM] | Compound | other results |
| --- | --- | --- |
| > 10 | Cn1cnc2c(C#N)c(N3CCNCC3)n(Cc3ccccc3)c2c1=O | – |
| > 10 | COc1cccc(C(=O)Cn2cnc3c(C#N)c(N4CCC[C@H](N)C4)n(CC=C(C)C)c3c2=O)c1 | – |
| > 10 | Cn1c(=O)c2c(c(C#N)c(N3CCC[C@H](N)C3)n2Cc2ccccc2)n(C)c1=O | – |
| > 10 | CC#CCn1c(N2CCC[C@@H](N)C2)c(C#N)c2ncn(CC(=O)c3cccc(OC)c3)c(=O)c21 | – |
| > 10 | CC(C)=CCn1c(N2CCCNCC2)c(C#N)c2c1c(=O)n(Cc1nccc3ccccc13)c(=O)n2C | – |
| > 10 | Cn1cnc2c(C#N)c(N3CCC[C@H](N)C3)n(Cc3ccccc3)c2c1=O | – |
| > 10 | N#Cc1c(N2CCC[C@H](N)C2)n(Cc2ccccc2)c2c(=O)n(Cc3ccnc4ccccc34)cnc12 | – |
| > 10 | COc1cccc(C(=O)Cn2c(=O)c3c(c(C#N)c(N4CCC[C@H](N)C4)n3Cc3ccccc3)n(C)c2=O)c1 | – |
| > 10 | COc1cccc(C(=O)Cn2cnc3c(C#N)c(N4CCNCC4)n(Cc4ccccc4)c3c2=O)c1 | – |
| > 10 | N#Cc1c(N2CCCNCC2)n(Cc2ccccc2)c2c(=O)n(Cc3nccc4ccccc34)cnc12 | – |
| > 10 | CC(C)=CCn1c(N2CCCNCC2)c(C#N)c2c1c(=O)n(Cc1nc(C)c3ccccc3n1)c(=O)n2C | IC50 [2]: ≤ 3 µM |
| > 10 | CC(C)=CCn1c(N2CCC[C@H](N)C2)c(C#N)c2ncn(C)c(=O)c21 | – |
| > 10 | CC#CCn1c(N2CCC[C@@H](N)C2)c(C#N)c2c1c(=O)n(Cc1nc(C)c3ccccc3n1)c(=O)n2C | IC50 [3]: 21.7 µM |
| > 10 | CC(C)=CCn1c(N2CCC[C@H](N)C2)c(C#N)c2c1c(=O)n(Cc1ncccc1C#N)c(=O)n2C | IC50 [2]: ≤ 3 µM; IC50 [3]: 16.9 µM |
| > 10 | CC(C)=CCn1c(N2CCCNCC2)c(C#N)c2c1c(=O)n(Cc1cn3ccccc3n1)c(=O)n2C | IC50 [2]: ≤ 3 µM |
| > 10 | CC#CCn1c(N2CCC[C@H](N)C2)c(C#N)c2c1c(=O)n(Cc1nc(C)c3ccccc3n1)c(=O)n2C | IC50 [3]: > 30 µM |
| > 10 | COc1cccc(C(=O)Cn2cnc3c(C#N)c(N4CCNCC4)n(CC=C(C)C)c3c2=O)c1 | – |
| > 10 | COc1cccc(C(=O)Cn2c(=O)c3c(c(C#N)c(N4CCCNCC4)n3CC=C(C)C)n(C)c2=O)c1 | IC50 [2]: ≤ 3 µM; IC50 [3]: 1.1 µM |
| > 10 | CC(C)=CCn1c(N2CCC[C@H](N)C2)c(C#N)c2c1c(=O)n(Cc1nccc3ccccc13)c(=O)n2C | – |
| > 10 | CC(C)=CCn1c(N2CCC[C@H](N)C2)c(C#N)c2ncn(Cc3ccnc4ccccc34)c(=O)c21 | – |
| > 10 | COc1cccc(C(=O)Cn2cnc3c(C#N)c(N4CCC[C@@H](N)C4)n(CC=C(C)C)c3c2=O)c1 | – |
| > 10 | CC(C)=CCn1c(N2CCCNCC2)c(C#N)c2c1c(=O)n(Cc1ncc3ccccc3c1C#N)c(=O)n2C | IC50 [2]: ≤ 3 µM; IC50 [3]: 1.8 µM |
| > 10 | COc1cccc(C(=O)Cn2c(=O)c3c(c(C#N)c(N4CCC[C@H](N)C4)n3CC=C(C)C)n(C)c2=O)c1 | IC50 [2]: ≤ 3 µM; IC50 [3]: 1.6 µM |
| > 10 | COc1cccc(C(=O)Cn2cnc3c(C#N)c(N4CCC[C@H](N)C4)n(Cc4ccccc4)c3c2=O)c1 | – |
